These results are taken from patent US9856230B2 (University of Sunderland, priority 2012, dated 2018).

Structures are written as SMILES. Like-named read-outs stand apart in the source and are kept apart here.

For assay [1], the target named is T1, Trx system (thioredoxin/thioredoxin reductase) (Homo sapiens, UniProt Q16881).
T1 sequence (Q16881 151-649 limits assumed): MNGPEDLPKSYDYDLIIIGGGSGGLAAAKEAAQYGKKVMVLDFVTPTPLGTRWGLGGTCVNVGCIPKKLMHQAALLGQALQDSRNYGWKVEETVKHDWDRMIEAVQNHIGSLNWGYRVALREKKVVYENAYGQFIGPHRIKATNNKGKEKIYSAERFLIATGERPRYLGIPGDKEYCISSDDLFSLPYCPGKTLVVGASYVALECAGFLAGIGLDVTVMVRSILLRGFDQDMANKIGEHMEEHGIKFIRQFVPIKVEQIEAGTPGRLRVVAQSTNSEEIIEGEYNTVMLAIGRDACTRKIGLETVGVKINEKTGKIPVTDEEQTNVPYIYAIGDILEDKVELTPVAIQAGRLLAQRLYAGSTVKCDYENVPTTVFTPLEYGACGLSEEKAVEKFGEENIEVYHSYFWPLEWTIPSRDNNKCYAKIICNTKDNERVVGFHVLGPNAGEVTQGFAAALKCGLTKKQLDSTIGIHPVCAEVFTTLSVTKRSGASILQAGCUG
The assay can be described thus: Thioredoxin/thioredoxin reductase insulin reduction assay. Format: biochemical. The note with it: for inhibition at 500 µM: compound at 500 μM, read-out: Inhib. (%) Trx Syst. at 500 μM. On the procedure:
Thioredoxin/thioredoxin reductase inhibition was measured using the insulin reduction assay (Stevens, M. F. G., Pallis, M., Bradshaw, T. D., Westwell, A. D., Grundy, M., Russell, N, “Induction of apoptosis without redox catastrophe by thioredoxin-inhibitory compounds”, Biochem. Pharmacol. (2003) 66, 1695-1705). […] The first part of the assay involves TrxR reducing oxidized Trx via NADPH. The reduced Trx then reduces disulfide bonds in the insulin, leaving exposed thiol groups, as summarized by the Trx reaction scheme.
The addition of dithionitrobenzoic acid (DTNB) to the free thiol groups of the insulin cleaves the disulfide bond in the DTNB which gives rise to a yellow colour (DTNB reaction scheme). The yellow colour is observed under basic conditions due to the conjugation of electrons between the thiolate anion and the nitro group of thionitrobenzoic acid (TNB). The level of thioredoxin/thioredoxin reductase inhibitory activity is […] proportional to the intensity of the yellow colour.
Addition of DTNB to reduced insulin produces thionitrobenzoic acid (TNB) and a mixed insulin disulfide. DTNB has very little absorbance, but under mild basic conditions TNB forms an anion that gives an intense yellow colour at 412 nm.
Synthesized compounds were tested for thioredoxin/thioredoxin reductase activity using the thioredoxin/thioredoxin reductase insulin assay described above under the heading “Assays”. The compounds were also tested for antiproliferative activity using the MTT assay described above under the heading “Assays”. Theoretical C log P values for the compounds were calculated using ChemDraw. The C log P of a compound is the logarithm of the compound's partition coefficient between n-octanol and water log(coctanol/cwater) and represents a measure of the compound's hydrophilicity and hydrophobicity. […]

Assay [2] deals with HPV-16 immortalized keratinocyte cell line (CCD-1106 KERTr). The assay can be described thus: cells. Type of assay: cell-based. The following applies: Homo sapiens.
From the text: The assay is based on the ability of a mitochondrial dehydrogenase enzyme to cleave the tetrazolium rings of the yellow MTT to form dark blue formazan crystals (MTT reaction scheme). These crystals are mostly impermeable to cell membranes and, consequently, they accumulate in healthy viable cells. The addition of detergent solubilizes the cells, which results in the liberation of purple formazan crystals. The number of viable cells is directly proportional to the level of purple formazan produced. This colour change can be measured by a spectrophotometer enabling quantification of changes in cellular proliferation. Compound activity measured by the MTT assay (or other proliferation related assay) may be given as a GI50 value.
A human papilloma virus-16 (HPV-16) immortalized keratinocyte cell line (CCD-1106 KERTr) was used in the MTT cell viability assay.
Antiproliferative activity is indicated by the MTT GI50 (μM), where a lower value indicates higher activity.
Setting [3] is: CCD-1106 KERTr keratinocytes, read-out: MTT GI50.
Where [4] appears, read: insulin reduction assay, read-out: Trx System IC50.
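Throughout, for GI50: growth inhibition read as spectrophotometric formazan colour from mitochondrial dehydrogenase cleavage of MTT, proportional to viable cell number, modelling psoriatic hyperproliferation, lower values mean stronger antiproliferative activity.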
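Throughout, for IC50 in MTT assay (antiproliferative activity): growth inhibition read as spectrophotometric formazan colour from mitochondrial dehydrogenase cleavage of MTT, proportional to viable cell number, modelling psoriatic hyperproliferation, lower values mean stronger antiproliferative activity.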
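Throughout, for MTT GI50 (μM): growth inhibition read as spectrophotometric formazan colour from mitochondrial dehydrogenase cleavage of MTT, proportional to viable cell number, modelling psoriatic hyperproliferation, lower values mean stronger antiproliferative activity.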

As to `COC(=O)c1ccc(NS(=O)(=O)c2ccc(Cl)s2)c(NS(=O)(=O)c2ccc(Cl)s2)c1` [(25), methyl 3,4-bis-(5-chloro-thiophene-2-sulfonylamino)benzoate], in assay [1], the inhibition at 500 µM came out at 61%. Besides, in assay [2] (setting [3]), the GI50 amounted to 1.2 µM.

On to `Cc1ccc(S(=O)(=O)Nc2ccc(C(=N)NO)cc2NS(=O)(=O)c2ccc(C)cc2)cc1` [(21c), N-hydroxy-3,4-bis-(toluene-4-sulfonylamino)benzamidine], for which, in assay [1], the inhibition at 500 µM is 32.4%. In assay [2] (setting [3]), the GI50 is 108 µM.

With `Cc1ccc(S(=O)(=O)Nc2ccc(N)cc2NS(=O)(=O)c2ccc(C)cc2)cc1` [(33b), 3,4-bis(toluene-4-sulfonylamino)phenyl amine], the inhibition at 500 µM in assay [1] was 31.6%. The GI50 in assay [2] (setting [3]) amounted to 48.9 µM.

Turning to `COC(=O)c1ccc(NS(=O)(=O)c2ccc(C)cc2)c(NS(=O)(=O)c2ccc(C)cc2)c1` [(12), methyl 3,4-diamino-N,N-bis-(toluene-4-sulfonylamino)benzoate], the inhibition at 500 µM in assay [1] was found to be 30%. Besides, the IC50 in assay [1] (setting [4]) amounted to 1360 µM. Moreover, the concentration for 50% growth inhibition (GI50) in assay [2] (setting [3]) was found to be 4.1 µM.

For the compound `COC(=O)c1ccc(NS(=O)(=O)c2ccc(Cl)cc2)c(NS(=O)(=O)c2ccc(Cl)cc2)c1` [(27), methyl 3,4-bis-(4-chlorobenzenesulfonylamino)benzoate], the inhibition at 500 µM in assay [1] was determined as 62.3%. Further, the IC50 in assay [1] (setting [4]) came out at 277 µM. For the same compound, in assay [2] (setting [3]), the GI50 turned out to be 0.64 µM.

As for `Cc1ccc(S(=O)(=O)Nc2ccc(NC(=O)c3cccs3)cc2NS(=O)(=O)c2ccc(C)cc2)cc1` [(55), N-(3,4-bis-(toluene-4-sulfonylamino)phenyl)-2-thiophenecarboxamide], in assay [1], the inhibition at 500 µM worked out at 61.5%. Also, the concentration for half-maximal inhibition (IC50) in assay [1] (setting [4]) is 494 µM. In assay [2] (setting [3]), the GI50 is 3.3 µM.

Consider `COC(=O)c1ccc(NS(=O)(=O)c2ccc(N)cc2)c(NS(=O)(=O)c2ccc(N)cc2)c1` [(19e), methyl 3,4-bis-(4-aminobenzenesulfonylamino)benzoate], for which the inhibition at 500 µM in assay [1] turned out to be 86.7%. Further, the IC50 in assay [1] (setting [4]) was found to be 386 µM. For the same compound, the GI50 in assay [2] (setting [3]) was > 420 µM.

With `COC(=O)c1ccc(NS(=O)(=O)c2ccc(OC)cc2)c(NS(=O)(=O)c2ccc(OC)cc2)c1` [(19d), methyl 3,4-bis-(4-methoxybenzenesulfonylamino)benzoate], in assay [1], the inhibition at 500 µM worked out at 14.6%. In addition, the GI50 in assay [2] (setting [3]) turned out to be 5.2 µM.

In the case of `Cc1ccc(S(=O)(=O)Nc2ccc(CN)cc2NS(=O)(=O)c2ccc(C)cc2)cc1` [(30), 3,4-bis(toluene-4-sulfonylamino)benzyl amine], the inhibition at 500 µM in assay [1] was 98.7%. In addition, the half-inhibitory concentration (IC50) in assay [1] (setting [4]) is 377 µM. Also, in assay [2] (setting [3]), the GI50 is 162 µM.

On to `Cc1ccc(S(=O)(=O)Nc2ccc(C(=O)NC(C)(C)C)cc2NS(=O)(=O)c2ccc(C)cc2)cc1` [(28), N-tert-butyl-3,4-bis-(toluene-4-sulfonylamino)benzamide], for which, in assay [1], the inhibition at 500 µM came to 10%. Also, the GI50 in assay [2] (setting [3]) came out at 5.1 µM.

Regarding `CCNC(=O)Nc1ccc(NS(=O)(=O)c2ccc(C)cc2)c(NS(=O)(=O)c2ccc(C)cc2)c1` [(33d), ethyl [3,4-bis(toluene-4-sulfonylamino)]phenyl urea], in assay [1], the inhibition at 500 µM is 88.3%. For the same compound, the GI50 in assay [2] (setting [3]) was determined as 55.9 µM.

On to `COC(=O)c1ccc(NS(=O)(=O)c2ccc([N+](=O)[O-])cc2)c(NS(=O)(=O)c2ccc([N+](=O)[O-])cc2)c1` [(19a), methyl 3,4-bis-(4-nitrobenzenesulfonylamino)benzoate], for which, in assay [1], the IC50 was found to be 475 µM and the inhibition at 500 µM was 53.3%. Besides, the GI50 in assay [2] (CCD-1106, read-out: MTT GI50 (μM)) came out at 11.2 µM.

Turning to `Cc1ccc(S(=O)(=O)Nc2ccc(CO)cc2NS(=O)(=O)c2ccc(C)cc2)cc1` [(36), (3,4-bis-(toluene-4-sulfonylamino)phenyl)methanol], in assay [1], the inhibition at 500 µM was 50%. Further, the GI50 in assay [2] (setting [3]) was 19.1 µM.

For the compound `COC(=O)c1ccc(NS(=O)(=O)c2ccc(OC(F)(F)F)cc2)c(NS(=O)(=O)c2ccc(OC(F)(F)F)cc2)c1` [(19c), methyl 3,4-bis-(4-trifluoromethoxybenzenesulfonylamino)benzoate], in assay [1], the inhibition at 500 µM was 43.7%. In addition, the IC50 in assay [1] (setting [4]) amounted to 546 µM. Moreover, the GI50 in assay [2] (setting [3]) was 2.2 µM.

On to `Cc1ccc(S(=O)(=O)Nc2ccc(-c3ccc(F)c(C#N)c3)cc2NS(=O)(=O)c2ccc(C)cc2)cc1` [(53), 3′,4′-bis-(toluene-4-sulfonylamino)-4-fluorobiphenyl-3-carbonitrile], for which, in assay [1], the inhibition at 500 µM is 71.1%. Also, the IC50 in assay [1] (setting [4]) was 106 µM. Also, the GI50 in assay [2] (setting [3]) stood at 0.156 µM.

`COC(=O)c1ccc(NS(=O)(=O)c2ccc(C(F)(F)F)cc2)c(NS(=O)(=O)c2ccc(C(F)(F)F)cc2)c1` [(19b), methyl 3,4-bis-(4-trifluoromethylbenzenesulfonylamino)benzoate]: the inhibition at 500 µM in assay [1] was 33.4%. For the same compound, in assay [1] (setting [4]), the IC50 stood at 429 µM. In addition, the GI50 in assay [2] (setting [3]) stood at 5.4 µM.

In the case of `Cc1ccc(S(=O)(=O)Nc2ccc(NS(N)(=O)=O)cc2NS(=O)(=O)c2ccc(C)cc2)cc1` [(33c), 3,4-bis(toluene-4-sulfonylamino)phenylsulfamide], the inhibition at 500 µM in assay [1] came to 38.6%. The concentration for 50% growth inhibition (GI50) in assay [2] (setting [3]) is 114 µM.

`Cc1ccc(S(=O)(=O)Nc2ccc(C#N)cc2NS(=O)(=O)c2ccc(C)cc2)cc1` [(21b), 3,4-bis-(toluene-4-sulfonylamino)benzonitrile]: the inhibition at 500 µM in assay [1] was determined as 58.4%. For the same compound, the GI50 in assay [2] (setting [3]) worked out at 4.7 µM.

Take `Cc1ccc(S(=O)(=O)Nc2ccc(C=O)cc2NS(=O)(=O)c2ccc(C)cc2)cc1` [(37), 3,4-bis-(toluene-4-sulfonylamino)benzaldehyde]: the inhibition at 500 µM in assay [1] was determined as 81%. In addition, the IC50 in assay [1] (setting [4]) was 374 µM. In addition, the GI50 in assay [2] (setting [3]) was determined as 12 µM.

Regarding `O=C(Nc1ccc(NS(=O)(=O)c2ccc(F)cc2)c(NS(=O)(=O)c2ccc(F)cc2)c1)c1ccco1` [Compound (103)], in assay [2] (CCD-1106, read-out: IC50 in MTT assay (antiproliferative activity)), the IC50 was found to be 36.2 µM.

For `CCOC(=O)CN(CC(=O)OCC)Cc1ccc(NS(=O)(=O)c2ccc(C)cc2)c(NS(=O)(=O)c2ccc(C)cc2)c1` [(32), ethyl {[3,4-bis-(toluene-4-sulfonylamino)benzyl]-ethoxycarbonylmethyl-amino}acetate], the inhibition at 500 µM in assay [1] was 58.1%. Besides, the GI50 in assay [2] (setting [3]) amounted to 9 µM.

Take `Cc1ccc(S(=O)(=O)Nc2ccc(C(N)=O)cc2NS(=O)(=O)c2ccc(C)cc2)cc1` [(29), 3,4-bis-(toluene-4-sulfonylamino)benzamide]: the inhibition at 500 µM in assay [1] was determined as 19.9%. The GI50 in assay [2] (setting [3]) came out at 104 µM.

For the compound `C=CC(=O)Nc1ccc(NS(=O)(=O)c2ccc(C)cc2)c(NS(=O)(=O)c2ccc(C)cc2)c1` [(39), N-[3,4-bis-(toluene-4-sulfonylamino)-phenyl]acrylamide], in assay [1], the inhibition at 500 µM turned out to be 73.9%. Also, the IC50 in assay [1] (setting [4]) turned out to be 156 µM. Further, the GI50 in assay [2] (setting [3]) was found to be 18.8 µM.

For the compound `Cc1ccc(S(=O)(=O)Nc2ccc(NC(=O)Nc3ccccc3)cc2NS(=O)(=O)c2ccc(C)cc2)cc1` [(33e), phenyl [3,4-bis(toluene-4-sulfonylamino)]phenyl urea], the inhibition at 500 µM in assay [1] stood at 0%. Besides, the GI50 in assay [2] (setting [3]) was 6.2 µM.

As for `Cc1ccc(S(=O)(=O)Nc2ccc(NC(=O)Cn3ccc(=O)[nH]c3=O)cc2NS(=O)(=O)c2ccc(C)cc2)cc1` [(42), N-[3,4-bis-(toluene-4-sulfonylamino)phenyl]-2-(2,4-dioxo-3,4-dihydro-2H-pyrimidin-1-yl)acetamide], the inhibition at 500 µM in assay [1] worked out at 70.7%. In assay [1] (setting [4]), the IC50 stood at 339 µM. The GI50 in assay [2] (setting [3]) is 100 µM.

Usually GI50 stands for the concentration at which growth is held to half of that of the control. For orientation: IC50 means the concentration that inhibits the measured activity by half.
